# Assay results: article PMC8921165, “Preclinical characterization of [^18F]T-008, a novel PET imaging radioligand for cholesterol 24-hydroxylase” (European Journal of Nuclear Medicine and Molecular Imaging, 2021)
# Tests used:
# [1] = biological target: T1, Cholesterol 24-hydroxylase (CH24H) (Mus musculus, UniProt Q9WVK8); assay: [3H]T-008 saturation radioligand binding; autoradiography in WT vs CH24H KO mouse brain sections
# T1 construct: gene Cyp46a1
# [2] = biological target: T2, Cholesterol 24-hydroxylase (CH24H) (Macaca mulatta, UniProt A0A5F7ZPE8); assay: in vivo PET enzyme occupancy, displacement of […]T-008 in rhesus brain
# T2 construct: gene CYP46A1
# T2 sequence (A0A5F7ZPE8 1-500): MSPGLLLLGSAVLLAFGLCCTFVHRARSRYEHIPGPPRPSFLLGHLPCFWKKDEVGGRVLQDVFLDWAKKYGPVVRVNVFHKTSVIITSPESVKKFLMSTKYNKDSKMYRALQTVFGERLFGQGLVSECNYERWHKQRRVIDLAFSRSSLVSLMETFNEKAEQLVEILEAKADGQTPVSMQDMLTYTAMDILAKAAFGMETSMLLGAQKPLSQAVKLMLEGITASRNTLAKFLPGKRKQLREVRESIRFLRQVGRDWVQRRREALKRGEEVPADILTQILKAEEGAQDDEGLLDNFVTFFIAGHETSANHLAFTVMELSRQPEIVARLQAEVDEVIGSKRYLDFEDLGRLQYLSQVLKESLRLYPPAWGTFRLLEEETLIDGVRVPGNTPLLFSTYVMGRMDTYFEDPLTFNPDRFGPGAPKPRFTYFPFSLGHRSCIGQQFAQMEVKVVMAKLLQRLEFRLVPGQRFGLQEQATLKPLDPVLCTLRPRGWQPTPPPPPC
# T1 sequence (Q9WVK8 whole entry): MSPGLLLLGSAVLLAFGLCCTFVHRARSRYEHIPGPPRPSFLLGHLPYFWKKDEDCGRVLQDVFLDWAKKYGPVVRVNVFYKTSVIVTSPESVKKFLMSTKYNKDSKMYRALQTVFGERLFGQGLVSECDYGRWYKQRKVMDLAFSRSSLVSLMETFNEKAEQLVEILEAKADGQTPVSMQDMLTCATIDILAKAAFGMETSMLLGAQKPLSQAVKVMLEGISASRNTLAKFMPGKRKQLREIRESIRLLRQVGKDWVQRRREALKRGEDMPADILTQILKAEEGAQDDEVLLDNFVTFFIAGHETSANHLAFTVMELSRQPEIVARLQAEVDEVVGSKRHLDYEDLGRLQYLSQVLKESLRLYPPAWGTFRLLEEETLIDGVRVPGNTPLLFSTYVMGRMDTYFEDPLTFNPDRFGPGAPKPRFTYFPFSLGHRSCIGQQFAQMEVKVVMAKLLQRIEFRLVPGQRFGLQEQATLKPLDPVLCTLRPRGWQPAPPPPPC
SMILES,Kd [1] [nM],EC50 [2] [nM]
"O=C(C1CCN(c2cncnc2-c2ccc(F)cc2)CC1)N1CC(F)C1 [T-008, (3-fluoroazetidin-1-yl){1-[4-(4-fluorophenyl)pyrimidin-5-yl]piperidin-4-yl}methanone]",14 ± 1,
"O=C(c1cccnc1-c1ccncc1)N1CCC(O)(Cc2ccccc2)CC1 [soticlestat, (4-benzyl-4-hydroxypiperidin-1-yl)(2,4′-bipyridin-3-yl) methanone]",,3.39
